Results reported in publication PMC11674377 (2024).

Experiments:
[1] = test system: sildenafil aptamer molecular gate (SDF-Aptamer + 3' TGCAAT) (DNA, aptamer) ATTGCAAACCCTCTACCAACAATCGTACTCGTTCGACGTGATGCAAT; assay: TMB release from aptamer-gated silica nanoparticles; settings: 1 µM sildenafil; immobilised aptamer gate; about 63 ± 6.2% of TMB released; control leakage 7.2 ± 4.4%
[2] = test system: SDF-Aptamer (DNA, aptamer) ATTGCAAACCCTCTACCAACAATCGTACTCGTTCGACGTGA; assay: fluorescent graphene oxide assay, Langmuir one-ligand fit; settings: K+ 2.7 mM, Na+ 137 mM; PBS (0.01 M phosphate, pH 7.4), 25 °C; aptamer 1 µM; unbound aptamer removed with 4 mg/mL GO; salt form used not stated (b30 mentions citrate)

In the case of `CCCc1nn(C)c2c(=O)[nH]c(-c3cc(S(=O)(=O)N4CCN(C)CC4)ccc3OCC)nc12`, the binding [1] is reported as “yes” and the KD [2] is reported as 205.3 ± 38.1 nM.
